Assay [1] concerns the target CYP3A4 (Homo sapiens, UniProt P08684). Description: P450-Glo CYP3A4 luciferin isopropylacetal (Luc-IP) assay.
In assay [2] the target is T1, Recombinant TDO (Homo sapiens, UniProt P48775).
T1 construct: Recombinant TDO (Seegers, N., et al.) and all other assay components were diluted in TDO reaction buffer
Nature of the assay: Biochemical assay for TDO (NFK GreenScreen). The conditions noted are these: 50 nM TDO, 200 μM L-tryptophan. The method, then: Biochemical Assay for TDO
The NFK GreenScreen™ assay technology was also used to determine the inhibitory activity of compounds on TDO (Seegers, N., et al., J. Biol. Screen. 19: 1266; 2014). Compounds were serially diluted in DMSO and finally in TDO reaction buffer, consisting of 100 mM NaH2PO4, pH 7.0, supplemented with 0.02% Tween-20 (cat. No. P7949; Sigma Aldrich). Recombinant TDO (Seegers, N., et al.) and all other assay components were diluted in TDO reaction buffer. 10 μl of compound solution and 20 μl of enzyme solution supplemented with 200 μM ascorbic acid were combined in the well of a black 384-well plate (cat. no. 3573; Corning, Corning, N.Y., USA), and incubated for 60 min at room temperature. Subsequently, 10 μl of 0.8 mM of the substrate L-tryptophan was added, i.e., the final concentration of L-tryptophan was 200 μM. The DMSO concentration in the assay was 0.3%. The concentration of TDO was 50 nM. Incubation was continued for 15 min at room temperature. Then, 10 μl of NFK Green™ (NTRC, Oss, The Netherlands) was added, the plate was sealed, and the reaction was developed for 3 hours at 37° C. To determine the production of N-formyl kynurenine (NFK), the seal was removed and fluorescence was read on an EnVision multimode reader (Perkin Elmer, Waltham, Mass., USA). IC50 were calculated using XLfit™ software (ID Business Solutions, Ltd., Surrey, U.K.).

Assay [3] deals with CYP2D6 (Homo sapiens, UniProt P10635). Description: P450-Glo CYP2D6 Luc-IP assay.
Chain of CYP2D6 (P10635 whole entry): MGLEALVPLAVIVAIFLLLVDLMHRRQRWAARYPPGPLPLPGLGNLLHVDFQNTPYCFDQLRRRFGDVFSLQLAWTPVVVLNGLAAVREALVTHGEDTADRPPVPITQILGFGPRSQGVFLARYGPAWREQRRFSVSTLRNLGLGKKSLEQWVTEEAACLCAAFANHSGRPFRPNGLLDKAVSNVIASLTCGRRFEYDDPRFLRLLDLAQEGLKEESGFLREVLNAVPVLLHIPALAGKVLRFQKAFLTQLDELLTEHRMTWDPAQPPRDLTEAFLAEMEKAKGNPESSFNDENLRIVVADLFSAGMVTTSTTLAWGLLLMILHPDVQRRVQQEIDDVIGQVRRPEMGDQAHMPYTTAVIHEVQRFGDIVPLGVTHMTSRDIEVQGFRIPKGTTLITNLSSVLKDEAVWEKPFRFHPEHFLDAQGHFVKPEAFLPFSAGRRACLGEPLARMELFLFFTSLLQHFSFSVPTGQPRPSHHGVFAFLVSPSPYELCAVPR

A value given as a limit tells only on which side of the number the result lay.

We go through 14 molecules from patent publication US10689343B2, “Inhibitors of tryptophan 2,3-dioxygenase” (NETHERLANDS TRANSLATIONAL RESEARCH CENTER B.V., priority 2016, dated 2020).

Chain of CYP3A4 (P08684 whole entry): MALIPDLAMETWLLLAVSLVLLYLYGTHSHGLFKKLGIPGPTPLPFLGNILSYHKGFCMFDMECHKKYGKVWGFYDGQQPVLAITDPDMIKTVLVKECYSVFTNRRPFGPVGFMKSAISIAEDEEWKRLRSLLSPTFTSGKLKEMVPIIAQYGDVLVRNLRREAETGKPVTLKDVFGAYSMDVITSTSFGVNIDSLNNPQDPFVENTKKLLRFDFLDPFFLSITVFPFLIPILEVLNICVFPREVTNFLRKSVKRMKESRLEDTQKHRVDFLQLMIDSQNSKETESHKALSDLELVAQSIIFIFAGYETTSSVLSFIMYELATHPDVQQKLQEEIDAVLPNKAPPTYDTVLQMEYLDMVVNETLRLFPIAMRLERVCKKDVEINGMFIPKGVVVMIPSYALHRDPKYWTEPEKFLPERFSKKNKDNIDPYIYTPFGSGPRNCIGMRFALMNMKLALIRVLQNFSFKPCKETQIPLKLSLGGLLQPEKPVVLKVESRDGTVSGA
T1 sequence (P48775 whole entry): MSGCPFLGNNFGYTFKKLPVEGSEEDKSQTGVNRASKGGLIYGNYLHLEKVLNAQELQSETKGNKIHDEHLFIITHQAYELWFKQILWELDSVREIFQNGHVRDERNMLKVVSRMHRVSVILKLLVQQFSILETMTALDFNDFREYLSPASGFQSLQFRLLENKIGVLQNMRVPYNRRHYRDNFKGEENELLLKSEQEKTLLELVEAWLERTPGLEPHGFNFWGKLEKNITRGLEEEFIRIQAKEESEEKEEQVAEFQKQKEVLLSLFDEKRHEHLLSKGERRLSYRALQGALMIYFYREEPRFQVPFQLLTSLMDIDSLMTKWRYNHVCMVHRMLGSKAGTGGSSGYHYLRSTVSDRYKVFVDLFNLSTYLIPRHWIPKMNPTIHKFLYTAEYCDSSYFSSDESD

`CNC(=O)Nc1ccc(-c2c[nH]c3cc(F)ccc23)cc1` [Example 5, 1-[4-(6-Fluoro-1H-indol-3-yl)phenyl]-3-methyl-urea]: the figures for the IC50 in assay [1], in assay [2] and in assay [3] were greater than 10 µM, less than 1 µM and greater than 10 µM, respectively.
For the molecule `CCNC(=O)Nc1ccc(-c2c[nH]c3cc(F)ccc23)cc1` [Example 6, 1-Ethyl-3-[4-(6-fluoro-1H-indol-3-yl)phenyl]urea], the figures for the half-inhibitory concentration (IC50) in assay [1], in assay [2] and in assay [3] were greater than 10 µM, 1 to 5 µM and greater than 10 µM, respectively.
As for `CN(C)C(=O)Nc1ccc(-c2c[nH]c3cc(F)ccc23)cc1` [Example 7, 3-[4-(6-Fluoro-1H-indol-3-yl)phenyl]-1,1-dimethyl-urea], the IC50 was greater than 10 µM in assay [1], 1 to 5 µM in assay [2] and greater than 10 µM in assay [3].
Turning to `O=C(NCC1CC(F)(F)C1)c1ccc(-c2c[nH]c3cc(F)ccc23)cc1` [Example 9, N-[(3,3-difluorocyclobutyl)methyl]-4-(6-fluoro-1H-indol-3-yl)benzamide], the 50% inhibitory concentration (IC50) was greater than 10 µM in assay [1], less than 1 µM in assay [2] and greater than 10 µM in assay [3].
Regarding `COC(=O)[C@@H](C)NC(=O)c1ccc(-c2c[nH]c3cc(F)ccc23)cc1` [Example 18, Methyl (2R)-2-[[4-(6-fluoro-1H-indol-3-yl)benzoyl]amino]propanoate], the IC50 was greater than 10 µM in assay [1], less than 1 µM in assay [2] and greater than 10 µM in assay [3].
For `CCCC(C)NC(=O)c1ccc(-c2c[nH]c3cc(F)ccc23)cc1` (centres unmarked) [Example 22, 4-(6-Fluoro-1H-indol-3-yl)-N-(1-methylbutyl)benzamide], the half-inhibitory concentration (IC50) in assay [1] was greater than 10 µM; in assay [2] it was less than 1 µM; in assay [3], greater than 10 µM.
In the case of `O=C(CC1CC1)Nc1ccc(-c2c[nH]c3cc(F)ccc23)cc1` [Example 28, 2-Cyclopropyl-N-[4-(6-fluoro-1H-indol-3-yl)phenyl]acetamide], the IC50 in assay [1] was greater than 10 µM; in assay [2] it was 1 to 5 µM; in assay [3], greater than 10 µM.
As for `CCNCC(=O)Nc1ccc(-c2c[nH]c3cc(F)ccc23)cc1` [Example 29, 2-(Ethylamino)-N-[4-(6-fluoro-1H-indol-3-yl)phenyl]acetamide], the IC50 is greater than 10 µM in assay [1], less than 1 µM in assay [2] and greater than 10 µM in assay [3].
In the case of `O=C(CC1COC1)Nc1ccc(-c2c[nH]c3cc(F)ccc23)cc1` [Example 30, N-[4-(6-fluoro-1H-indol-3-yl)phenyl]-2-(oxetan-3-yl)acetamide], the half-inhibitory concentration (IC50) was greater than 10 µM in assay [1], less than 1 µM in assay [2] and greater than 10 µM in assay [3].
In the case of `N#CCC(=O)Nc1ccc(-c2c[nH]c3cc(F)ccc23)cc1` [Example 32, 2-Cyano-N-[4-(6-fluoro-1H-indol-3-yl)phenyl]acetamide], the IC50 in assay [1] was greater than 10 µM; in assay [2], less than 1 µM; in assay [3], greater than 10 µM.
For the molecule `COCC(C)C(=O)Nc1ccc(-c2c[nH]c3cc(F)ccc23)cc1` (centres unmarked) [Example 33, N-[4-(6-fluoro-1H-indol-3-yl)phenyl]-3-methoxy-2-methyl-propanamide], the IC50 was greater than 10 µM in assay [1], less than 1 µM in assay [2] and greater than 10 µM in assay [3].
`C[C@H](O)CC(=O)Nc1ccc(-c2c[nH]c3cc(F)ccc23)cc1` [Example 34, (3S)—N-[4-(6-fluoro-1H-indol-3-yl)phenyl]-3-hydroxy-butanamide]: the figures for the IC50 in assay [1], in assay [2] and in assay [3] were greater than 10 µM, less than 1 µM and greater than 10 µM, respectively.
In the case of `CC(C)(O)CC(=O)Nc1ccc(-c2c[nH]c3cc(F)ccc23)cc1` [Example 35, N-[4-(6-fluoro-1H-indol-3-yl)phenyl]-3-hydroxy-3-methyl-butanamide], the IC50 in assay [1] is greater than 10 µM; in assay [2], less than 1 µM; in assay [3], greater than 10 µM.
As for `O=C(Nc1ccc(-c2c[nH]c3cc(F)ccc23)cc1)C1CCC1(F)F` (centres unmarked) [Example 101, 2,2-Difluoro-N-[4-(6-fluoro-1H-indol-3-yl)phenyl]cyclobutanecarboxamide], the IC50 in assay [1] and in assay [3] was greater than 10 µM each time.
